Results on three compounds are retold here after patent publication US20170105947A1, “Appetite Suppressant Composition” (priority 2015, published 2017).

For series [1] the following is noted: in vivo; cited from earlier work.
A further series concerns rat intestinal cells. The conditions noted are these: added to rat intestinal cells / lumen of the intestine; cited from earlier work.
The next series relates to gastric emptying. The conditions noted are these: oral administration of 50-100 mg/kg, rats; cited from earlier work.
For series [2] the following is noted: rats vs human intake of about 350 ug/kg/day; cited from earlier work.
A short description of a further series: food preference of dogs. Format: in vivo. The settings on record: food containing 2,500 ppm vs untreated control.
For series [3] the following is noted: 13 wk, rat, cited from earlier work.

Entries after “also recorded” stand apart in the source; their conditions may differ.

Text for food preference of dogs: During this experience non-encapsulated trans-2-hexenal in combination with other chemicals were applied to feed.

Take `CCCCCCCCCCC[C@@H](C[C@@H]1OC(=O)[C@H]1CCCCCC)OC(=O)[C@H](CC(C)C)NC=O` [Orlistat, tetrahydrolipstatin]: the known side effects result in series [1] is “steatorrhea, fecal incontinence, frequent bowel movements and urgency, compromised absorption of fat-soluble vitamins and nutrients, increased appetite and diminished effectiveness over time”.

As to `CCCCC/C=C/C=C/C=O` [trans, trans-2,4-decadienal], the “level of CCK in vitro” value with rat intestinal cells was “increased the level of CCK”. In the series on gastric emptying, the gastric emptying result is “reduced gastric emptying”.

Turning to `CCC/C=C/C=O` [trans-2-hexenal], the “toxic levels in rats relative to normal intake by humans” value in series [2] was 30 times. Further, in the series “food preference of dogs”, the food preference entry is “dogs preferred the untreated control”. Further, the “body weight and intake” value in series [3] (4000 ppm in diet) was “no significant reduction; also recorded: did not significantly affect feed intake or body weight”. Moreover, in series [3] (dietary levels 0, 260, 640, 1600 or 4000 ppm), the “changes in hematological parameters or organ weights” value was “did not induce any changes”.
